According to US10294202B2, “Pyrrolidinones as herbicides” (FMC Corporation, priority 2013, dated 2019):
Read-outs that look alike come from different tables or passages of the source.

Experiments:
barnyardgrass = experiment: Test A pre-/postemergence herbicide test; format: in vivo, Echinochloa crus-galli; settings: for pest or weed control at 500 g/ha: 500 g ai/ha, 0 to 100 scale (0 no effect, 100 complete control)
How it was run: (§1)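 Both application timings used compounds in a non-phytotoxic solvent plus surfactant. Pre-emergence: soil sprayed directly after seeding into loam/sand. Post-emergence: foliage of 2–10 cm seedlings (1–2 leaves) sprayed. Injury rated ~10 days later, 0–100.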

giant foxtail = experiment: Test A pre-/postemergence herbicide test; format: in vivo, Setaria faberii; settings: for pest or weed control at 500 g/ha: 500 g ai/ha
How it was run: as §1

corn = experiment: Test A pre-/postemergence herbicide test; format: in vivo, Zea mays; settings: for Corn plant response rating (crop injury, 0 = no effect, 100 = complete kill) at 500 g/ha: 500 g ai/ha
How it was run: as §1

rice = experiment: Test B flooded paddy test; format: in vivo, Oryza sativa; settings: 250 g ai/ha, Flood; scale of 0 to 100 where 0 is no effect and 100 is complete control
How it was run: (§2)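 2-leaf plants; flood 3 cm over soil; compound into paddy water; depth held. Greenhouse 13–15 d. Visual rating vs controls, 0 (no effect) to 100 (complete control); dash = not tested.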

sedge, umbrella = experiment: Test B flooded paddy test; format: in vivo, Cyperus difformis; settings: 250 g ai/ha, Flood; scale of 0 to 100 where 0 is no effect and 100 is complete control
How it was run: as §2

wheat (winter wheat) = experiment: Test C pre-/postemergence herbicide test; format: in vivo, Triticum aestivum
How it was run: (§3)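 Herbicidal effect was judged by eye 13 to 15 days after treatment in the greenhouse, using a 0–100 scale against controls. Chemicals in a non-phytotoxic solvent with surfactant were sprayed onto planted loam/sand soil or onto plants 2 to 18 cm tall in a peat-based growing medium.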

foxtail, giant = experiment: Test C pre-/postemergence herbicide test; format: in vivo, Setaria faberii
How it was run: as §3

lambsquarters = experiment: Test C pre-/postemergence herbicide test; format: in vivo, Chenopodium album
How it was run: as §3

morningglory = experiment: Test C pre-/postemergence herbicide test; format: in vivo, Ipomoea coccinea
How it was run: as §3

nutsedge, yellow = experiment: Test C pre-/postemergence herbicide test; format: in vivo, Cyperus esculentus
How it was run: as §3

velvetleaf = experiment: Test C pre-/postemergence herbicide test; format: in vivo, Abutilon theophrasti
How it was run: as §3

[1] = Preemergence, 125 g ai/ha, visual rating on 0 to 100 scale (0 no effect, 100 complete control)
[2] = Postemergence, 31 g ai/ha, scale 0 (no effect) to 100 (complete control)
[3] = Postemergence, 62 g ai/ha, scale 0 to 100 (0 no effect, 100 complete control)
[4] = Postemergence, 125 g ai/ha, scale 0 to 100 (0 no effect, 100 complete control)
[5] = Postemergence, 250 g ai/ha, scale 0 to 100 (0 no effect, 100 complete control)
[6] = Preemergence, 31 g ai/ha, scale 0 to 100, 0 is no effect and 100 is complete control
[7] = Preemergence, 62 g ai/ha, scale 0 to 100
[8] = Preemergence, 125 g ai/ha, scale 0 to 100 (0 no effect, 100 complete control)

Structure (SMILES): O=C1NCC(c2ccc(C(F)(F)F)cc2)C1C(=O)Nc1ccccc1F (centres unmarked) [Compound 79, N-(2-fluorophenyl)-2-oxo-4-[4-(trifluoromethyl)phenyl]-3-pyrrolidinecarboxamide]
- pest or weed control at 125 g/ha (barnyardgrass; Echinochloa crus-galli, post-emergence, 240 h, Postemergence, 125 g ai/ha, 0 to 100 scale, 0 no effect, 100 complete control, read-out: Plant response rating, Barnyardgrass): 80%
- pest or weed control at 500 g/ha (barnyardgrass; Echinochloa crus-galli, post-emergence, 240 h, Postemergence, read-out: Plant response rating, Barnyardgrass): 90%
- pest or weed control at 500 g/ha (barnyardgrass; Echinochloa crus-galli, pre-emergence, 240 h, preemergence, read-out: Plant response rating, Barnyardgrass): 90%
- Barnyardgrass plant response rating (barnyardgrass; [1]): 80
- Foxtail, Giant plant response rating (giant foxtail; [1]): 90
- pest or weed control at 125 g/ha (giant foxtail; Setaria faberi, post-emergence, 240 h, Postemergence, 125 g ai/ha, 0 to 100 scale, 0 no effect, 100 complete control, read-out: Plant response rating, Foxtail, Giant): 80%
- pest or weed control at 500 g/ha (giant foxtail; Setaria faberi, post-emergence, 240 h, Postemergence, 0 to 100 scale (0 no effect, 100 complete control), read-out: Plant response rating, Foxtail, Giant): 80%
- pest or weed control at 500 g/ha (giant foxtail; Setaria faberi, pre-emergence, 240 h, preemergence, 0 to 100 scale, read-out: Plant response rating, Foxtail, Giant): 90%
- Corn plant response rating (corn; [1]): 0
- Corn plant response rating (crop injury, 0 = no effect, 100 = complete kill) at 125 g/ha (corn; Zea mays, post-emergence, 240 h, Postemergence, 125 g ai/ha, 0 to 100 scale, 0 no effect, 100 complete control): 20%
- Corn plant response rating (crop injury, 0 = no effect, 100 = complete kill) at 500 g/ha (corn; Zea mays, post-emergence, 240 h, Postemergence, 0 to 100 scale (0 no effect, 100 complete control)): 70%
- Corn plant response rating (crop injury, 0 = no effect, 100 = complete kill) at 500 g/ha (corn; Zea mays, pre-emergence, 240 h, preemergence, 0 to 100 scale): 0%
- Plant response rating, Rice (rice): 0
- Plant response rating, Sedge, Umbrella (sedge, umbrella): 0
- Plant response rating, Wheat (wheat (winter wheat); [2]): 0
- Plant response rating, Wheat (wheat (winter wheat); [3]): 0
- Plant response rating, Wheat (wheat (winter wheat); [4]): 0
- Plant response rating, Wheat (wheat (winter wheat); [5]): 0
- Wheat plant response rating (wheat (winter wheat); [6]): 10
- Plant response rating, Wheat (wheat (winter wheat); [7]): 40
- Plant response rating, Wheat (wheat (winter wheat); [8]): 60
- Plant response rating (scale of 0 to 100), Wheat (wheat (winter wheat); Preemergence, 250 g ai/ha): 75
- Plant response rating, Foxtail, Giant (foxtail, giant; [2]): 15
- Plant response rating, Foxtail, Giant (foxtail, giant; [3]): 15
- Plant response rating, Foxtail, Giant (foxtail, giant; [4]): 15
- Plant response rating, Foxtail, Giant (foxtail, giant; [5]): 15
- Foxtail, Giant plant response rating (foxtail, giant; [6]): 80
- Plant response rating, Foxtail, Giant (foxtail, giant; [7]): 90
- Plant response rating, Foxtail, Giant (foxtail, giant; [8]): 95
- Plant response rating (scale of 0 to 100), Foxtail, Giant (foxtail, giant; Preemergence, 250 g ai/ha): 98
- Plant response rating, Lambsquarters (lambsquarters; [2]): 25
- Plant response rating, Lambsquarters (lambsquarters; [3]): 50
- Plant response rating, Lambsquarters (lambsquarters; [4]): 85
- Plant response rating, Lambsquarters (lambsquarters; [5]): 85
- Lambsquarters plant response rating (lambsquarters; [6]): 90
- Plant response rating, Lambsquarters (lambsquarters; [7]): 90
- Plant response rating, Lambsquarters (lambsquarters; [8]): 90
- Plant response rating (scale of 0 to 100), Lambsquarters (lambsquarters; Preemergence, 250 g ai/ha): 90
- Plant response rating, Morningglory (morningglory; [2]): 0
- Plant response rating, Morningglory (morningglory; [3]): 0
- Plant response rating, Morningglory (morningglory; [4]): 5
- Plant response rating, Morningglory (morningglory; [5]): 5
- Morningglory plant response rating (morningglory; [6]): 0
- Plant response rating, Morningglory (morningglory; [7]): 0
- Plant response rating, Morningglory (morningglory; [8]): 0
- Plant response rating (scale of 0 to 100), Morningglory (morningglory; Preemergence, 250 g ai/ha): 0
- Plant response rating, Nutsedge, Yellow (nutsedge, yellow; [2]): 0
- Plant response rating, Nutsedge, Yellow (nutsedge, yellow; [3]): 0
- Plant response rating, Nutsedge, Yellow (nutsedge, yellow; [4]): 0
- Plant response rating, Nutsedge, Yellow (nutsedge, yellow; [5]): 0
- Nutsedge, Yellow plant response rating (nutsedge, yellow; [6]): 0
- Plant response rating, Nutsedge, Yellow (nutsedge, yellow; [7]): 0
- Plant response rating, Nutsedge, Yellow (nutsedge, yellow; [8]): 0
- Plant response rating (scale of 0 to 100), Nutsedge, Yellow (nutsedge, yellow; Preemergence, 250 g ai/ha): 0
- Plant response rating, Velvetleaf (velvetleaf; [2]): 0
- Plant response rating, Velvetleaf (velvetleaf; [3]): 0
- Plant response rating, Velvetleaf (velvetleaf; [4]): 0
- Plant response rating, Velvetleaf (velvetleaf; [5]): 0
- Velvetleaf plant response rating (velvetleaf; [6]): 0
- Plant response rating, Velvetleaf (velvetleaf; [7]): 0
- Plant response rating, Velvetleaf (velvetleaf; [8]): 20
- Plant response rating (scale of 0 to 100), Velvetleaf (velvetleaf; Preemergence, 250 g ai/ha): 35
